Literature values, collected in patent publication US8858953B2, “Herbal composition for treating cancer” (priority 2011, dated 2014).

Tested on: Epidermal Growth Factor Receptor (EGFR) mutation lung cancer
Conditions: lung cancer patients with EGFR mutation

C#Cc1cccc(Nc2ncnc3cc(OCCOC)c(OCCOC)cc23)c1 [Erlotinib]
progression free survival: up to 9 months
